Values quoted from earlier work in patent publication US20230128032A1, “Early Drug Interventions to Reduce COVID-19 Related Respiratory Distress, Need for Respirator Assist and Death” (Curtails LLC, priority 2020, published 2023).
Bridges are numbered along the chain shown (N, C = ends). Where no end group is shown, it is not given here.

Columns and labels:
[1] = test system: patients with pulmonary arterial hypertension; conditions: racecadotril treatment
mice = conditions: ANP pretreatment
[2] = test system: patients with acute lung injury; conditions: intravenous infusion, mechanical ventilation with positive end-expiratory pressure
[3] = test system: intensive care patients without heart disease
isolated perfused lung = conditions: increased capillary pressure, hypoxia or inflammatory stimuli such as detergents or prostaglandins

Compound | increase in plasma cGMP levels [1] | increase in the plasma ANP concentration [1] | reduction in pulmonary vascular resistance [1] | pulmonary oedema induced by congestive heart failure (dogs) | pulmonary oedema induced by lung ischaemia-reperfusion injury (rodents) | lung injury, inflammation and endothelial barrier dysfunction induced by gram-negative bacterial wall LPS or Staphylococcus Aureus infection (mice) | lung injury score [2] | pulmonary gas exchange [2] | pulmonary oedema [3] | anti-oedematic action in isolated perfused lung (isolated perfused lung)
CC(=O)SCC(Cc1ccccc1)C(=O)NCC(=O)OCc1ccccc1 (stereo not shown) [racecadotril] | 106% | 79% | 14% | – | – | – | – | – | – | –
ANP: synthetic form of the GC-A agonist peptide atrial natriuretic peptide (SLRRSSCFGGRMDRIGAQSGLGCNSFRY; disulfide 7-23; ends not checked; UniProt P01160 124-151, looked up) | – | – | – | attenuated | attenuated | protected | improved | improved | diminished | direct anti-oedematic action
